Earlier results as cited in patent US20170072072A1, “PH SENSITIVE FLUORESCENT COMPOUNDS AND METHODS FOR TUMOR DETECTION” (THE METHODIST HOSPITAL SYSTEM, priority 2014, published 2017).

Conditions: in DMSO

- quantum yield Φ of reference: 0.106
SMILES: CC1(C)C(/C=C/C=C/C=C/C=C2\N(CCCCS(=O)(=O)O)c3ccc4ccccc4c3C2(C)C)=[N+](CCCCS(=O)(=O)[O-])c2ccc3ccccc3c21 [indocyanine green]
